The record followed here is article PMC13266984 (Journal of medicinal chemistry, 2026).

In one test the target is T1, OE19 (3A1) (Homo sapiens, UniProt P30838).
T1 sequence (P30838 1-453): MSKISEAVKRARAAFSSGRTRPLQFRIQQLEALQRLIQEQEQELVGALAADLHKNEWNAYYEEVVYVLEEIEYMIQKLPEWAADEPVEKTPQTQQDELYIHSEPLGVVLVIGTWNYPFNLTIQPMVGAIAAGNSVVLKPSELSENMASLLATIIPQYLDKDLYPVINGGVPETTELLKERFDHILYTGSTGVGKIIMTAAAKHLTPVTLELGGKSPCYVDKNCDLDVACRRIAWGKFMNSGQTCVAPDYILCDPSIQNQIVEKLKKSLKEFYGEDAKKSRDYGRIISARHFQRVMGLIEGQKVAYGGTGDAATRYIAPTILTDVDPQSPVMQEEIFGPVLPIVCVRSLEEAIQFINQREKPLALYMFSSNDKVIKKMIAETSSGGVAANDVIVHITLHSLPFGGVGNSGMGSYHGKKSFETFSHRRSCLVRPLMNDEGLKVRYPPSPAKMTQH
The test is described as follows: Cellular ALDEFLUOR assay in OE19 cells (preferential ALDH3A1 expression).

A further test has as its target T2, Human ALDH3A1 (Homo sapiens, UniProt P30838).
T2 sequence (P30838 1-453): T1 sequence (P30838 1-453)
The test is described as follows: ALDH3A1 biochemical assay (benzaldehyde/NADP+, diaphorase-resazurin readout, 1,536-well). (In general: Alamar Blue is a resazurin reagent that responds to reducing activity.)

Where [1] appears, read: Table S4, biochemical curve class.
Setting [2] is: Table S5, biochemical curve class.

For the compound `CCc1ccc(N2CCN(c3nc(C(=O)NCc4cccc(C)c4)cs3)CC2)cc1Cl` [NCGC01211398-01], the values for the AC50 on OE19 (3A1) and on Human ALDH3A1 were 2480 nM and 580 nM, respectively. Further, at OE19 (3A1) (Table S4, OE19 cells), the Cell_Efficacy is listed as -99.68. This compound came in with a Cell_CC-v2 on OE19 (3A1) (Table S4, cellular curve class) of -1.1. Also, the Efficacy at Human ALDH3A1 (Table S4, biochemical) is listed as -91.75. The CC-v2 at Human ALDH3A1 (setting [1]) was -1.1.
Consider `Cc1cccc(CNC(=O)c2csc(N3CCN(c4cccc(C)c4)CC3)n2)c1` [NCGC01211399-01], for which the AC50 was determined as 5560 nM on OE19 (3A1) and 1150 nM at Human ALDH3A1. At OE19 (3A1) (Table S4, OE19 cells), the Cell_Efficacy is recorded as -101.59. The compound further yielded a Cell_CC-v2 at OE19 (3A1) (Table S4, cellular curve class) of -1.3. Moreover, the Efficacy on Human ALDH3A1 (Table S4, biochemical) is -77.88. Further, the CC-v2 on Human ALDH3A1 (setting [1]) is -1.2.
With `Cc1cccc(CNC(=O)c2csc(N3CCN(c4cc(Cl)c(Cl)c(Cl)c4)CC3)n2)c1` [NCGC01211545-01], the AC50 came to 390 nM on OE19 (3A1) and 580 nM on Human ALDH3A1. Further, the Cell_Efficacy on OE19 (3A1) (Table S4, OE19 cells) is given as -73.43. Moreover, the Cell_CC-v2 at OE19 (3A1) (Table S4, cellular curve class) is -1.2. On Human ALDH3A1 (Table S4, biochemical), this compound came in with an Efficacy of -72.19. Besides, the CC-v2 at Human ALDH3A1 (setting [1]) was -1.2.
With `COc1ccc(N2CCN(c3nc(C(=O)NCc4cccc(C(F)(F)F)c4)cs3)CC2)cc1` [NCGC01211588-01], the AC50 on OE19 (3A1) was 1970 nM; on Human ALDH3A1, 1290 nM. Moreover, the Cell_Efficacy on OE19 (3A1) (Table S4, OE19 cells) is on record as -97.51. Further, the Cell_CC-v2 at OE19 (3A1) (Table S4, cellular curve class) was -1.1. The compound also had an Efficacy on Human ALDH3A1 (Table S4, biochemical) of -45.52. The same compound yielded a CC-v2 at Human ALDH3A1 (setting [1]) of -1.2.
For `COc1ccc(N2CCN(c3nc(C(=O)NCc4cccc(C)c4)cs3)CC2)cc1OC` [NCGC01211669-01], the AC50 on OE19 (3A1) came to 8810 nM; on Human ALDH3A1, 6470 nM. The compound also registered a Cell_Efficacy at OE19 (3A1) (Table S4, OE19 cells) of -91.42. Moreover, the Cell_CC-v2 at OE19 (3A1) (Table S4, cellular curve class) is given as -1.1. On Human ALDH3A1 (Table S4, biochemical), the Efficacy is reported as -51.05. This compound returned a CC-v2 at Human ALDH3A1 (setting [1]) of -1.2.
For `CCOC(=O)Cc1ccc(N2CCN(c3nc(C(=O)NCc4cccc(C)c4)cs3)CC2)cc1` [NCGC01212809-01], the AC50 at OE19 (3A1) amounted to 3930 nM; at Human ALDH3A1, 3240 nM. On OE19 (3A1) (Table S4, OE19 cells), the Cell_Efficacy is given as -80.26. Besides, the Cell_CC-v2 on OE19 (3A1) (Table S4, cellular curve class) is listed as -1.1. At Human ALDH3A1 (Table S4, biochemical), this compound displayed an Efficacy of -99.09. This compound also came in with a CC-v2 at Human ALDH3A1 (setting [1]) of -1.1.
For the compound `Cc1cccc(CNC(=O)c2csc(N3CCN(c4cncc(Br)c4)CC3)n2)c1` [NCGC01212814-01], at OE19 (3A1) (Table S4, OE19 cells), the Cell_Efficacy is recorded as 0.00. Besides, on OE19 (3A1) (Table S4, cellular curve class), the Cell_CC-v2 is recorded as 4. The AC50 on Human ALDH3A1 was determined as 1290 nM. The same compound displayed an Efficacy on Human ALDH3A1 (Table S4, biochemical) of -92.59. The compound further displayed a CC-v2 on Human ALDH3A1 (setting [1]) of -1.1.
As to `Cc1cccc(CNC(=O)c2csc(N3CCN(c4cccc(F)c4)CC3)n2)c1` [NCGC01219288-01], the AC50 at OE19 (3A1) came to 990 nM; at Human ALDH3A1, 1020 nM. At OE19 (3A1) (Table S4, OE19 cells), this compound displayed a Cell_Efficacy of -85.92. The compound also showed a Cell_CC-v2 on OE19 (3A1) (Table S4, cellular curve class) of -1.1. The compound also had an Efficacy on Human ALDH3A1 (Table S4, biochemical) of -96.39. The same compound returned a CC-v2 at Human ALDH3A1 (setting [1]) of -1.1.
As to `Cc1cccc(CNC(=O)c2csc(N3CCN(c4cccc(OC(F)(F)F)c4)CC3)n2)c1` [NCGC01219289-01], the AC50 at OE19 (3A1) was 990 nM; on Human ALDH3A1 it was 730 nM. Moreover, the Cell_Efficacy on OE19 (3A1) (Table S4, OE19 cells) is given as -93.51. In addition, the Cell_CC-v2 on OE19 (3A1) (Table S4, cellular curve class) is recorded as -1.1. Further, the Efficacy on Human ALDH3A1 (Table S4, biochemical) is -97.63. Moreover, the CC-v2 on Human ALDH3A1 (setting [1]) is -1.1.
For `Cc1cccc(CNC(=O)c2csc(N3CCN(c4ccc(F)cc4)CC3)n2)c1` [NCGC01219292-01], the values for the AC50 at OE19 (3A1) and at Human ALDH3A1 were 880 nM and 1150 nM, respectively. On OE19 (3A1) (Table S4, OE19 cells), this compound returned a Cell_Efficacy of -90.33. The same compound had a Cell_CC-v2 on OE19 (3A1) (Table S4, cellular curve class) of -1.3. Besides, on Human ALDH3A1 (Table S4, biochemical), the Efficacy was -94.91. At Human ALDH3A1 (setting [1]), this compound came in with a CC-v2 of -1.1.
On OE19 (3A1), `O=C(Nc1ccncc1)c1ccc(CNC(=O)c2csc(N3CCN(c4cccc(C(F)(F)F)c4)CC3)n2)cc1` [NCGC01396478-01] had an AC50 of 6310 nM. Moreover, the Cell_Efficacy on OE19 (3A1) (Table S5, OE19 cells) was -114.29. The compound further displayed a Cell_CC-v2 at OE19 (3A1) (Table S5, cellular curve class) of -2.1. At Human ALDH3A1 (Table S5, biochemical), the Efficacy is reported as -22.34. Also, the CC-v2 at Human ALDH3A1 (setting [2]) is on record as 4.
Consider `O=C(NCc1ccc(Br)c(C(F)(F)F)c1)c1csc(N2CCN(c3cccc(C(F)(F)F)c3)CC2)n1` [NCGC01396480-01], for which the AC50 on OE19 (3A1) was determined as 1360 nM; at Human ALDH3A1, 11.2 nM. In addition, the Cell_Efficacy on OE19 (3A1) (Table S5, OE19 cells) is recorded as -77.80. Moreover, at OE19 (3A1) (Table S5, cellular curve class), the Cell_CC-v2 is -1.4. Also, the Efficacy at Human ALDH3A1 (Table S5, biochemical) is -96.06. Further, the CC-v2 on Human ALDH3A1 (setting [2]) is -1.1.
Regarding `O=C(NCc1ccc2c(c1)COC2=O)c1csc(N2CCN(c3cccc(C(F)(F)F)c3)CC2)n1` [NCGC01396481-01], the AC50 on OE19 (3A1) worked out at 342 nM; on Human ALDH3A1, 39.8 nM. On OE19 (3A1) (Table S5, OE19 cells), this compound showed a Cell_Efficacy of -73.69. The compound further yielded a Cell_CC-v2 on OE19 (3A1) (Table S5, cellular curve class) of -1.4. For the same compound, the Efficacy at Human ALDH3A1 (Table S5, biochemical) is listed as -98.89. Besides, the CC-v2 at Human ALDH3A1 (setting [2]) is listed as -1.1.

Broadly, the AC50 is the concentration at which the activity in the assay is half-maximal.
